From article PMC6478789, “A chemical toolbox for the study of bromodomains and epigenetic signaling” (Nature Communications, 2019)

Assays:
Assay in all cases: Temperature shift assay (protein kinases)
Type in all cases: binding
Details in all cases: 10 μM probe; average of three measurements
AAK1 = target: T1, AAK1 (Homo sapiens, UniProt Q2M2I8)
T1 construct: Recombinant protein domains (bromodomain or kinases) at a concentration of 2 μM
Description: (§1) Temperature shift assays have been described by Fedorov et al.[46]. Recombinant protein domains (bromodomain or kinases) at a concentration of 2 μM in 10 mM HEPES, pH 7.5, and 500 mM NaCl were mixed with 10 μM of chemical probes. Temperature-dependent protein unfolding profiles were measured using a Real-Time PCR Mx3005p machine (Stratagene).

AURKB = target: T2, AURKB (Homo sapiens, UniProt Q96GD4)
T2 construct: Recombinant protein domains (bromodomain or kinases) at a concentration of 2 μM
T2 sequence (Q96GD4 77-327 limits assumed, species assumed): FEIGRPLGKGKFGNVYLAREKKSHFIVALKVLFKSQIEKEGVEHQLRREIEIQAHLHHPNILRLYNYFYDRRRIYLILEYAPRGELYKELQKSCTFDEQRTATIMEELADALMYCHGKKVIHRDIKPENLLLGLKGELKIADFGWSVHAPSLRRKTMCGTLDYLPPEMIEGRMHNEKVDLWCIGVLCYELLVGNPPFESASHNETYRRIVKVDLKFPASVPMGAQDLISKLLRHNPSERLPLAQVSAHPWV
Description: as §1

BMX = target: T3, BMX (Homo sapiens, UniProt P51813)
T3 construct: Recombinant protein domains (bromodomain or kinases) at a concentration of 2 μM
T3 sequence (P51813 417-675 limits assumed, species assumed): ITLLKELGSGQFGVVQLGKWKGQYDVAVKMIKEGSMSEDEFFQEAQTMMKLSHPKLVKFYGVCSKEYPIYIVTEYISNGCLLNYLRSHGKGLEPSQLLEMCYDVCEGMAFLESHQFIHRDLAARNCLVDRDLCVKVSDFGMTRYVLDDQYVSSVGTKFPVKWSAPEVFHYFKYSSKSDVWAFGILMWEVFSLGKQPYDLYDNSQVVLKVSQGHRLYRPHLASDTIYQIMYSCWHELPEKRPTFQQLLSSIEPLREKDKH
Description: as §1

CAMK1G = target: T4, CAMK1G (Homo sapiens, UniProt Q96NX5)
T4 construct: Recombinant protein domains (bromodomain or kinases) at a concentration of 2 μM
T4 sequence (Q96NX5 23-277 limits assumed, species assumed): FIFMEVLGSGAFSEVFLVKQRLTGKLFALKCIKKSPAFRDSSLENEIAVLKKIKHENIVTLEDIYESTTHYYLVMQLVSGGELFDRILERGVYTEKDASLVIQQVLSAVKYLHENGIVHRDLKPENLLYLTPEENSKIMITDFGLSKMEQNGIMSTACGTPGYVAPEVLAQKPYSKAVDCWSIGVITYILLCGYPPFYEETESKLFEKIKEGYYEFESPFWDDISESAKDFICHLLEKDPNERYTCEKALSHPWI
Description: as §1

CAMKK2 = target: T5, CAMKK2 (Homo sapiens, UniProt Q96RR4)
T5 construct: Recombinant protein domains (bromodomain or kinases) at a concentration of 2 μM
T5 sequence (Q96RR4 165-446 limits assumed, species assumed): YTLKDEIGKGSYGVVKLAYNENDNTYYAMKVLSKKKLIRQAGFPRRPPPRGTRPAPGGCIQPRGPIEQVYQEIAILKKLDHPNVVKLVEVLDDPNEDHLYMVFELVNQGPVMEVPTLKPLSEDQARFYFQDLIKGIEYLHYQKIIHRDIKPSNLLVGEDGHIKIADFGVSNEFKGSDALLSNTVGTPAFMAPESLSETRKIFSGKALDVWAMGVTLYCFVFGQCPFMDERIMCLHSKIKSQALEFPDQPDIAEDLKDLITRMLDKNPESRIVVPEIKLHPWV
Description: as §1

CK2A1 = target: T6, CK2A1 (Homo sapiens, UniProt P68400)
T6 construct: Recombinant protein domains (bromodomain or kinases) at a concentration of 2 μM
T6 sequence (P68400 39-324 limits assumed): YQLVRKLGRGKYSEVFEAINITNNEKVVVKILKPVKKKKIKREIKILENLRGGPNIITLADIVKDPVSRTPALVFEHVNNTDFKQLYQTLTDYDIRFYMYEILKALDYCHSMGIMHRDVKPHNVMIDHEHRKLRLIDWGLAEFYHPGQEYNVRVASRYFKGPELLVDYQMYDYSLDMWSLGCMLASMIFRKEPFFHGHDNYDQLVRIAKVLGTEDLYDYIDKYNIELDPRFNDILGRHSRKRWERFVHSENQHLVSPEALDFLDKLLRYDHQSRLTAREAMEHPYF
Description: as §1

DAPK3 = target: T7, DAPK3 (Homo sapiens, UniProt O43293)
T7 construct: Recombinant protein domains (bromodomain or kinases) at a concentration of 2 μM
T7 sequence (O43293 13-275 limits assumed, species assumed): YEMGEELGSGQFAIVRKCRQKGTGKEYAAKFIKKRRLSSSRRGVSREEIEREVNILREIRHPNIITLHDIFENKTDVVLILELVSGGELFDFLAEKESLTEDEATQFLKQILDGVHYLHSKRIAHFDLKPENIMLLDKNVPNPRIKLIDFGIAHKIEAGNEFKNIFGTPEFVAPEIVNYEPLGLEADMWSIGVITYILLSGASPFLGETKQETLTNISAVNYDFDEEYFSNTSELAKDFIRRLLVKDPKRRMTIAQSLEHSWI
Description: as §1

DYRK1A = target: T8, DYRK1A (Homo sapiens, UniProt Q13627)
T8 construct: Recombinant protein domains (bromodomain or kinases) at a concentration of 2 μM
Description: as §1

FES = target: T9, FES (Homo sapiens, UniProt P07332)
T9 construct: Recombinant protein domains (bromodomain or kinases) at a concentration of 2 μM
T9 sequence (P07332 561-822 limits assumed, species assumed): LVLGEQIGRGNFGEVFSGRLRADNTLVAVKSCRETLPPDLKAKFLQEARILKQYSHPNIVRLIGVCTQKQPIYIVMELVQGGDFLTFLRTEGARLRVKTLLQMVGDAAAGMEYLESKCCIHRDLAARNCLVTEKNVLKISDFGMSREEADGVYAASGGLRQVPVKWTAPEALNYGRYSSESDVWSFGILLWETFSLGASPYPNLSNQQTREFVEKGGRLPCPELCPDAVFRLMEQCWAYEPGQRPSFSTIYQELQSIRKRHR
Description: as §1

GPRK5 = target: T10, GPRK5 (Homo sapiens, UniProt P34947)
T10 construct: Recombinant protein domains (bromodomain or kinases) at a concentration of 2 μM
T10 sequence (P34947 186-448 limits assumed, species assumed): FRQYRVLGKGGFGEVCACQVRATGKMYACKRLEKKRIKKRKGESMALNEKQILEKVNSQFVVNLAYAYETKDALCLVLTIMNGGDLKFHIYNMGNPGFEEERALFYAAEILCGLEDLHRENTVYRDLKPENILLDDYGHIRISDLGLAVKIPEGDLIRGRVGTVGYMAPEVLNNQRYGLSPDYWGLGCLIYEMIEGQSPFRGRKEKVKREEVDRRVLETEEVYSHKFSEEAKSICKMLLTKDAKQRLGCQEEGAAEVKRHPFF
Description: as §1

GSG2 = target: T11, GSG2 (Homo sapiens, UniProt Q8TF76)
T11 construct: Recombinant protein domains (bromodomain or kinases) at a concentration of 2 μM
T11 sequence (Q8TF76 484-798 limits assumed): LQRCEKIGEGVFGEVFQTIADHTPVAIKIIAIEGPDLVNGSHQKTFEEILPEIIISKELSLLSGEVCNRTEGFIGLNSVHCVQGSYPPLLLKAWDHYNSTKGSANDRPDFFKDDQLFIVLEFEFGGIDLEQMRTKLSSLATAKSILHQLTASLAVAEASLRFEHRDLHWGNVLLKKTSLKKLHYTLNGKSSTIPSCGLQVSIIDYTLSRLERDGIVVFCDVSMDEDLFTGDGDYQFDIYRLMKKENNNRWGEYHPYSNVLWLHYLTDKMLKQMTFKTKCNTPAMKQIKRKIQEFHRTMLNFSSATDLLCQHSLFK
Description: as §1

MAPK1 = target: T12, MAPK1 (Homo sapiens, UniProt P28482)
T12 construct: Recombinant protein domains (bromodomain or kinases) at a concentration of 2 μM
T12 sequence (P28482 25-313 limits assumed, species assumed): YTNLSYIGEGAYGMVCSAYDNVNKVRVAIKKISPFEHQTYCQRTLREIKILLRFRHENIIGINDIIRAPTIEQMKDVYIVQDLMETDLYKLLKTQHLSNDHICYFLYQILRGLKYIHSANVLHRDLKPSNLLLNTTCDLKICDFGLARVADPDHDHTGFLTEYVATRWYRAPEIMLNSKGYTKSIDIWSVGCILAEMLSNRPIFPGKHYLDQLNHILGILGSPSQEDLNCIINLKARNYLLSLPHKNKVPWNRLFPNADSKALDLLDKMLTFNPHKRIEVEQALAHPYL
Description: as §1

MAPK8 = target: T13, MAPK8 (Homo sapiens, UniProt P45983)
T13 construct: Recombinant protein domains (bromodomain or kinases) at a concentration of 2 μM
T13 sequence (P45983 26-321 limits assumed, species assumed): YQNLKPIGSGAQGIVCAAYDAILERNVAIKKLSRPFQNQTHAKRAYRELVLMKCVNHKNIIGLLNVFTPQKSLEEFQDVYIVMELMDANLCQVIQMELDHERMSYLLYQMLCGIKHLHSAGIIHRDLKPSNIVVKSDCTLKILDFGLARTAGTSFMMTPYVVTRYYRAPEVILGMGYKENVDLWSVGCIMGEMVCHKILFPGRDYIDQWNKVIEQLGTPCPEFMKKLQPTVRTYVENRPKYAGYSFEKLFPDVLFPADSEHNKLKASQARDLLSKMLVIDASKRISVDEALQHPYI
Description: as §1

MERTK = target: T14, MERTK (Homo sapiens, UniProt Q12866)
T14 construct: Recombinant protein domains (bromodomain or kinases) at a concentration of 2 μM
T14 sequence (Q12866 587-858 limits assumed): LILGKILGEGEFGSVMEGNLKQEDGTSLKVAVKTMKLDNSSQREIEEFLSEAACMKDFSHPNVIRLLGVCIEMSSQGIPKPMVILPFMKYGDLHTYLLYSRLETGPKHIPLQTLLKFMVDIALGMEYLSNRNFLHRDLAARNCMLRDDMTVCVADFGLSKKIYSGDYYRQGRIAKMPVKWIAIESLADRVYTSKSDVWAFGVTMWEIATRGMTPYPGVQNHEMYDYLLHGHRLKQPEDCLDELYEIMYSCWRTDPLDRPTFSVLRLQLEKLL
Description: as §1

PAK4 = target: T15, PAK4 (Homo sapiens, UniProt O96013)
T15 construct: Recombinant protein domains (bromodomain or kinases) at a concentration of 2 μM
T15 sequence (O96013 321-572 limits assumed, species assumed): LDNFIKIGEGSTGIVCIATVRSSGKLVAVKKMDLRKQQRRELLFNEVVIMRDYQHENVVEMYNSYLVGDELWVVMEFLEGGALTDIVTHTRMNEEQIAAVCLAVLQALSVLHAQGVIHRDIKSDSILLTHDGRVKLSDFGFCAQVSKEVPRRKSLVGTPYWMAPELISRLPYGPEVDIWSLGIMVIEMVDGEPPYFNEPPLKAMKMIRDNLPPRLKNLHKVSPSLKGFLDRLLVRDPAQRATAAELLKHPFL
Description: as §1

PHGK2 = target: T16, PHGK2 (Homo sapiens, UniProt P15735)
T16 construct: Recombinant protein domains (bromodomain or kinases) at a concentration of 2 μM
T16 sequence (P15735 24-291 limits assumed): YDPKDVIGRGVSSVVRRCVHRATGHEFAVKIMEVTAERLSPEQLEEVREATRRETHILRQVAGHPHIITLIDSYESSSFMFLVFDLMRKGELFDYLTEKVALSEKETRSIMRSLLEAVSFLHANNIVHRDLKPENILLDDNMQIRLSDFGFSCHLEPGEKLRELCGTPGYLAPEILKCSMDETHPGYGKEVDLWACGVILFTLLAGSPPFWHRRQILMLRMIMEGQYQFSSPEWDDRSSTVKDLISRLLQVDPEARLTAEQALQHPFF
Description: as §1

STK10 = target: T17, STK10 (Homo sapiens, UniProt O94804)
T17 construct: Recombinant protein domains (bromodomain or kinases) at a concentration of 2 μM
T17 sequence (O94804 36-294 limits assumed, species assumed): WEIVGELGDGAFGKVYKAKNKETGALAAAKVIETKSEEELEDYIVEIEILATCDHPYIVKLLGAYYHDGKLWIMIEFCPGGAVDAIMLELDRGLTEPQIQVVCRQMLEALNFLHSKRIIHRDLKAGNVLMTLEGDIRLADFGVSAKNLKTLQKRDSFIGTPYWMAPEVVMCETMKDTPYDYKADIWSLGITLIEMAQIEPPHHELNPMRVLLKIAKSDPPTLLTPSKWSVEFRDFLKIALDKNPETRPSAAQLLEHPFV
Description: as §1

STK3 = target: T18, STK3 (Homo sapiens, UniProt Q13188)
T18 construct: Recombinant protein domains (bromodomain or kinases) at a concentration of 2 μM
T18 sequence (Q13188 27-278 limits assumed): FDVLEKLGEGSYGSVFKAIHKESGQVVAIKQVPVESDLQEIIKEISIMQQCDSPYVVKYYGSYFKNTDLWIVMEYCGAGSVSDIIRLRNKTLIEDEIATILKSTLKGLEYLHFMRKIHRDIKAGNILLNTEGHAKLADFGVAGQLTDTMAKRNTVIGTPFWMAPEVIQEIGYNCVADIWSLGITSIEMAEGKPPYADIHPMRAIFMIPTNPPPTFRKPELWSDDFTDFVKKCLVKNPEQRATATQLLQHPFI
Description: as §1

TTK = target: T19, TTK (Homo sapiens, UniProt P33981)
T19 construct: Recombinant protein domains (bromodomain or kinases) at a concentration of 2 μM
T19 sequence (P33981 525-791 limits assumed): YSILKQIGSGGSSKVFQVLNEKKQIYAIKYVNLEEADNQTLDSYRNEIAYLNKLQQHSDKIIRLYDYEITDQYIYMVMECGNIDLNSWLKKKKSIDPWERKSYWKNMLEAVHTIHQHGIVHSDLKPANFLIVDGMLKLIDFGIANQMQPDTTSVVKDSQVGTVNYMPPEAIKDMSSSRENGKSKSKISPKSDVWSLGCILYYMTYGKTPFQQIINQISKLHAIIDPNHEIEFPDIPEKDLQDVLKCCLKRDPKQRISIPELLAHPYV
Description: as §1

T1 sequence (Q2M2I8 46-315 limits assumed, species assumed): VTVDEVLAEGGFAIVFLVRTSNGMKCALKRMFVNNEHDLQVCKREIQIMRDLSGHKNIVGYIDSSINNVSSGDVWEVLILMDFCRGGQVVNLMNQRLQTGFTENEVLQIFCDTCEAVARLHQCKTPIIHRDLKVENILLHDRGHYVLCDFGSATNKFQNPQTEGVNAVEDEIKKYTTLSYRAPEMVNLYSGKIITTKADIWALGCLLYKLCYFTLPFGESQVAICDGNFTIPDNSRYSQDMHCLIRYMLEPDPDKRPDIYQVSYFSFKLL

Temperature shift (AAK1) | Temperature shift (AURKB) | Temperature shift (BMX) | Temperature shift (CAMK1G) | Temperature shift (CAMKK2) | Temperature shift (CK2A1) | Temperature shift (DAPK3) | Temperature shift (DYRK1A) | Temperature shift (FES) | Temperature shift (GPRK5) | Temperature shift (GSG2) | Temperature shift (MAPK1) | Temperature shift (MAPK8) | Temperature shift (MERTK) | Temperature shift (PAK4) | Temperature shift (PHGK2) | Temperature shift (STK10) | Temperature shift (STK3) | Temperature shift (TTK) | Compound
-0.4 Kelvin | 0.2 Kelvin | 0.3 Kelvin | -0.6 Kelvin | -0.4 Kelvin | -1.4 Kelvin | -0.2 Kelvin | -0.5 Kelvin | 0.0 Kelvin | -0.3 Kelvin | 0.1 Kelvin | 0.0 Kelvin | -0.4 Kelvin | -0.2 Kelvin | -0.1 Kelvin | 0.0 Kelvin | -0.2 Kelvin | 0.1 Kelvin | -0.1 Kelvin | Cc1cc2c(cc1N1C(=O)c3cccc4c(CCCO)ccc(c34)C1=O)n(C)c(=O)n2C [BAY-299]
-0.7 Kelvin | 0.3 Kelvin | -0.1 Kelvin | -0.2 Kelvin | -0.4 Kelvin | -1.9 Kelvin | 0.0 Kelvin | -0.4 Kelvin | -0.1 Kelvin | -0.4 Kelvin | 0.1 Kelvin | 0.2 Kelvin | 0.3 Kelvin | -0.2 Kelvin | -0.2 Kelvin | 0.1 Kelvin | -0.4 Kelvin | 0.0 Kelvin | 0.0 Kelvin | CCC(=O)N1CCOc2c(cc(-c3ccc(OC)c(OC)c3)cc2OCC2CCCN(C)C2)C1 (stereo not drawn) [I-CBP112]
-1.6 Kelvin | 0.4 Kelvin | -0.1 Kelvin | -0.3 Kelvin | -0.1 Kelvin | -0.1 Kelvin | 0.2 Kelvin | 0.2 Kelvin | -0.2 Kelvin | -0.3 Kelvin | 0.1 Kelvin | 0.1 Kelvin | 0.6 Kelvin | 0.0 Kelvin | -0.3 Kelvin | -0.1 Kelvin | -0.4 Kelvin | 0.0 Kelvin | -0.5 Kelvin | Cc1nnc2c3ccccc3c(N[C@@H](C)[C@H](c3ccccc3)N(C)C)nn12 [L-Moses]
